Patent US11419862B2, “Quinoline derivative for treatment of nasopharyngeal carcinoma” (CHIA TAI TIANQING PHARMACEUTICAL GROUP CO., LTD., priority 2018, dated 2022)
Structures can show the parent of a compound that is named as a salt.

Test system: nasopharyngeal carcinoma
Experiment: Efficacy on nasopharyngeal carcinoma: patient case reports treated orally with capsules of the compound of Example 1
Format: in vivo, human
Parameters: key to evaluation according to RECIST 1.1: CR: complete remission, which means that target lesions of tumors have disappeared and no new lesions appear which is maintained for at least 4 weeks; PR: partial remission, which means 30% or more decrease in the sum of the diameters of target lesions of tumors than the baseline level, which is maintained for at least 4 weeks; PD: the progression of disease, which means 20% or more increase in the diameters of target lesions of tumors than the baseline level; SD: stable disease, which means the sum of diameters of all target leisions neither shrink to qualify for PR nor sufficient increase to qulify for PD
Experimental: During or after radiotherapy, the patients are treated with the capsules of the compound of Example 1 at 12 mg qd. The administration is continuously performed for 2 weeks and rest for 1 week, followed by continuously administrating for 2 weeks and resting for 1 week as a cycle. The target lesions are regularly evaluated, and the treatment regimen is terminated according to the evaluation results.
Subsequently, the patient took orally the capsules of 12 mg of the compound of Example 1 once per day for treatment (continuously administrating for 2 weeks and resting for 1 week as a treatment cycle). […] After 4 cycles of treatment, evaluated as PR according to RECIST 1.1, and the sum of the target lesions was 10 mm, which was reduced by 9 mm from the baseline. After 8 cycles of treatment, the sum of the target lesions was 9 mm, which was reduced by 10 mm from the baseline.
From Mar. 2, 2017, the patient started to take orally the capsules of 12 mg of the compound of Example 1 once per day for treatment (continuously administrating for 2 weeks and resting for 1 week as a treatment cycle). On Apr. […] The treatment with the capsules of the compound of Example 1 was continued.
Three months later, the patient started to take orally the capsules of 12 mg of the compound of Example 1 once per day for treatment (continuously administrating for 2 weeks and resting for 1 week as a treatment cycle). […] The treatment with the capsules of the compound of Example 1 was continued.

[1] = Example 4, patient, 12 mg once per day orally, after 2 cycles
[2] = Example 4, patient, 12 mg once per day orally, after 4 cycles
[3] = Example 4, patient, 12 mg once per day orally, after 8 cycles
[4] = Example 5, patient, 12 mg once per day orally, after 2 cycles
[5] = Example 5, patient, 12 mg once per day orally, after 4 cycles
[6] = Example 5, patient, 12 mg once per day orally, after 6 cycles
[7] = Example 5, patient, 12 mg once per day orally, after 12 cycles
[8] = Example 5, patient, 12 mg once per day orally, after 16 cycles
[9] = Example 6, patient, 12 mg once per day orally, after 2 cycles
[10] = Example 6, patient, 12 mg once per day orally, after 4 cycles

## COc1cc2c(Oc3ccc4[nH]c(C)cc4c3F)ccnc2cc1OCC1(N)CC1 [Example 1, 1-[[[4-fluoro-2-methyl-1H-indol-5-yl)oxy-6-methoxyquinolin-7-yl]oxy]methyl]cyclopropylamine dihydrochloride]
Example 4, patient, 12 mg once per day orally, 2 weeks on/1 week off, after 2 cycles
  evaluation according to RECIST 1.1: PR (partial remission, which means 30% or more decrease in the sum of the diameters of target lesions of tumors than the baseline level, which is maintained for at least 4 weeks)
[1]
  reduction of sum of the target lesions from the baseline: 7 mm
  sum of the target lesions: 12 mm
[2]
  evaluation according to RECIST 1.1: PR (partial remission, which means 30% or more decrease in the sum of the diameters of target lesions of tumors than the baseline level, which is maintained for at least 4 weeks)
  reduction of sum of the target lesions from the baseline: 9 mm
  sum of the target lesions: 10 mm
[3]
  reduction of sum of the target lesions from the baseline: 10 mm
  sum of the target lesions: 9 mm
Example 4, patient, 12 mg once per day orally, relieved after medication and dosage reduction
  adverse reaction during the administration: Grade 3 hypertension
Example 5, patient, 12 mg once per day orally, 2 weeks on/1 week off, after 2 cycles
  evaluation according to RECIST 1.1: PR (partial remission, which means 30% or more decrease in the sum of the diameters of target lesions of tumors than the baseline level, which is maintained for at least 4 weeks)
[4]
  reduction of sum of the target lesions from the baseline: 17 mm
  sum of the target lesions: 30 mm
[5]
  evaluation according to RECIST 1.1: PR (partial remission, which means 30% or more decrease in the sum of the diameters of target lesions of tumors than the baseline level, which is maintained for at least 4 weeks)
  reduction of sum of the target lesions from the baseline: 19 mm
  sum of the target lesions: 28 mm
[6]
  evaluation according to RECIST 1.1: PR (partial remission, which means 30% or more decrease in the sum of the diameters of target lesions of tumors than the baseline level, which is maintained for at least 4 weeks)
  reduction of sum of the target lesions from the baseline: 23 mm
  sum of the target lesions: 24 mm
[7]
  evaluation according to RECIST 1.1: PR (partial remission, which means 30% or more decrease in the sum of the diameters of target lesions of tumors than the baseline level, which is maintained for at least 4 weeks)
  reduction of sum of the target lesions from the baseline: 23 mm
  sum of the target lesions: 24 mm
[8]
  evaluation according to RECIST 1.1: PR (partial remission, which means 30% or more decrease in the sum of the diameters of target lesions of tumors than the baseline level, which is maintained for at least 4 weeks)
  reduction of sum of the target lesions from the baseline: 24 mm
  sum of the target lesions: 23 mm
Example 6, patient, 12 mg once per day orally, 2 weeks on/1 week off, after 2 cycles
  evaluation according to RECIST 1.1: SD
[9]
  reduction of sum of the target lesions from the baseline: 18 mm
  sum of the target lesions: 47 mm
[10]
  evaluation according to RECIST 1.1: PR (partial remission, which means 30% or more decrease in the sum of the diameters of target lesions of tumors than the baseline level, which is maintained for at least 4 weeks)
  reduction of sum of the target lesions from the baseline: 23 mm
  sum of the target lesions: 42 mm
Example 6, patient, alleviated by antihypertensive drugs and dose reduction to 10 mg and 8 mg
  adverse reaction during the administration: Grades 2 and 3 hypertension
